Publication PMC11270730, “Isolation and In Vitro Biological Evaluation of Triterpenes from Salacia grandifolia Leaves” (ACS Omega, 2024)

Legend:
[1] = L929 cell viability, MTT assay (CC50); details: mouse
Procedure: (§1) The antiviral activity of isolated compounds and extracts was evaluated against the murine coronavirus MHV-3. Initially, the viability of L929 (mouse adipose fibroblasts; ATCC CCL-1) cells was assessed using the MTT (3-(4,5-dimethylthiazol-2-yl)-2,5-diphenyltetrazolium bromide (Thermo Fisher Scientific, USA) assay.[11] Cells were cultured at 37 °C and 5% CO2 in Dulbecco’s modified Eagle medium (DMEM; Cultilab, Brazil) supplemented with 5% fetal bovine serum (FBS; Cultilab, Brazil), 100 IU/mL of penicillin (Cellofarm, Brazil), 100 μg/mL of streptomycin (Merck, Germany) and 0.25 μg/mL of amphotericin B (Cultilab, Brazil). Cells were seeded in 96-well microplates (4 × 10^4 cells per well) and added 200 μL of DMEM with 1% de FBS containing the diluted compounds and extracts to be tested (100 to 1.56 μM or 200 to 3.125 μg/mL). Serial dilutions of DMSO were used as a vehicle control. Additionally, a 10% v/v inhibition control of DMSO was used. After 72 h of incubation under the same conditions, media was removed and 100 μL of MTT diluted in DMEM (0.5 mg/mL) were added to each well and incubated for 3 h. Last, media was removed, and 100 μL of DMSO were added to each well to solubilize the formazan crystals. The absorbance was read at 570 nm using a spectrophotometer (Versamax, Molecular Devices, EUA). The percentages of cell viability inhibition were calculated as the ratio between the absorbance of cells treated with the compounds relative to the vehicle control. Linear regression was used to calculate CC50 values, considering only those data for which r^2 > 0.9. The 50% cytotoxic concentration (CC50) is defined as the highest concentration of a specific compound that reduces cell viability by 50%. All conditions were tested in two independent assays in triplicate.

[2] = system: MHV-3; experiment: Antiviral MTT assay against MHV-3 in L929 cells (EC50); assay type: cell-based, mouse hepatitis virus 3 (murine coronavirus); details: for EC50: Murine coronavirus, MHV-3 in L929 cells, MOI 0.1, MTT, NA: not active
Procedure: as §1
Here, the same conditions as that used for CC50 were used, with the only difference being the concentrations of the samples (up to 8-fold dilution from the CC50 values for the compounds) diluted in 100 μL and added to 100 μL of viral suspension at a multiplicity of infection (MOI) of 0.1, that is, one viral particle per 10 cells in culture. Ribavirin was used as the positive control. The EC50 value was calculated as the percentage ratio between the absorbance of infected cells treated with the compounds and cells treated only with the vehicle. Last, the selectivity index (SI) was calculated using the ratio between CC50 and EC50. All conditions were tested in two independent assays in triplicate.

[3] = system: THP-1 cells; experiment: Cytotoxic MTT assay, THP-1; assay type: cell-based; details: Homo sapiens; THP-1, MTT, 48 h, mean ± SD of two independent experiments
Procedure: (§2) The cytotoxicity of compounds was evaluated against the K-562 (chronic myeloid leukemia, ATCC CCL-243) and THP-1 (acute monocytic leukemia, ATCC TIB-202) cell lines. […] For the cytotoxicity assessment, cells were planted in 96-well microplates (1 × 10^4 cells per well) containing RPMI 1640 medium (Roswell Park Memorial Institute, Cultilab, Campinas, SP, Brazil) supplemented with 10% FBS (Cultilab, Campinas, SP, Brazil), 100 U/mL penicillin, 100 μg/mL streptomycin, and 10 mM HEPES, pH 7.4. The cells were incubated in a humidified incubator at 37 °C with 5% CO2 until the assay was performed. […] After 48 h of incubation, 100 μL of MTT salt at a concentration of 0.5 mg/mL was added to each well. The plate was then incubated for 3 h. After the incubation period, the supernatant was removed, and 50 μL of DMSO was added to each well to solubilize the formazan crystals. The absorbance per well was measured at a wavelength of 550 nm using a microplate reader (Versamax, Molecular Devices, USA). The minimum concentration that inhibited 50% of cell viability (IC50) in the presence of the tested compounds was determined by comparing it with cells cultured without the compounds (considered 100% viable).

[4] = system: K-562 cells; experiment: Cytotoxic MTT assay, K-562; assay type: cell-based; details: Homo sapiens, K562; K-562, MTT, 48 h, mean ± SD of two independent experiments
Procedure: as §2

SMILES: CC1C(=O)CCC2C1(C)CCC1C2(C)CCC2(C)C3CC(C)(C)CCC3(CO)CC(=O)C12C (centres unmarked) [Compound 1, 28-hydroxyfriedelane-3,15-dione]
- CC50 at 72 h [1]: > 100 µM
- EC50 [2]: 69 ± 6 µM
- IC50 [3]: 539 ± 43 µM
- IC50 [4]: 259 ± 33 µM

SMILES: C[C@H]1C(=O)CC[C@@H]2[C@]1(C)CC[C@H]1[C@@]2(C)CC[C@@]2(C)[C@@H]3CC(C)(C)CC[C@]3(C)CC[C@]12C [Compound 2, friedelan-3-one]
- CC50 at 72 h [1]: > 100 µM

SMILES: C[C@H]1[C@@H](O)CC[C@@H]2[C@]1(C)CC[C@H]1[C@@]2(C)CC[C@@]2(C)[C@@H]3CC(C)(C)CC[C@]3(C)CC[C@]12C [Compound 3, friedelan-3β-ol]
- CC50 at 72 h [1]: > 100 µM

SMILES: C[C@H]1C(=O)CC[C@@H]2[C@]1(C)CC[C@H]1[C@@]2(C)CC[C@@]2(C)[C@@H]3CC(C)(C)CC[C@]3(C)CC(=O)[C@]12C [Compound 4, friedelane-3,15-dione]
- CC50 at 72 h [1]: > 100 µM
- antiviral activity ([2]; MHV-3, up to 100 μM): no antiviral activity
- IC50 [3]: 350 ± 43 µM
- IC50 [4]: 593 ± 44 µM

SMILES: C[C@H]1C(=O)CC[C@@H]2[C@]1(C)CC[C@H]1[C@@]2(C)CC[C@@]2(C)[C@@H]3CC(C)(C)CC[C@]3(C)C[C@H](O)[C@]12C [Compound 5, 15α-hydroxyfriedelan-3-one]
- CC50 at 72 h [1]: > 100 µM

SMILES: C[C@H]1C(=O)CC[C@@H]2[C@]1(C)CC[C@H]1[C@@]2(C)CC[C@@]2(C)[C@@H]3CC(C)(C)CC[C@]3(CO)CC[C@]12C [Compound 6, 28-hydroxyfriedelan-3-one]
- CC50 at 72 h [1]: > 100 µM
- increase in activity compared to triterpene 1 ([2]; MHV-3 antiviral activity, 6 versus 1): 23 times
- EC50 [2]: 2.9 ± 0.3 µM
- IC50 [3]: 623 ± 12 µM
- IC50 [4]: 318 ± 41 µM

SMILES: C[C@H]1C(=O)CC[C@@H]2[C@]1(C)CC[C@H]1[C@@]2(C)CC[C@@]2(C)[C@@H]3C[C@@](C)(CO)CC[C@]3(C)CC[C@]12C [Compound 7, 30-hydroxyfriedelan-3-one]
- CC50 at 72 h [1]: > 100 µM
- IC50 [3]: 385 ± 21 µM
- IC50 [4]: 361 ± 52 µM

SMILES: C[C@H]1C(=O)CC[C@@H]2[C@]1(C)CC[C@H]1[C@@]2(C)CC[C@@]2(C)[C@@H]3C[C@](C)(CO)CC[C@]3(C)CC[C@]12C [Compound 8, 29-hydroxyfriedelan-3-one]
- CC50 at 72 h [1]: > 100 µM

SMILES: Nc1ccn([C@@H]2O[C@H](CO)[C@@H](O)[C@@H]2O)c(=O)n1 [cytarabine, reference compound]
- IC50 [3]: 41 ± 8 µM

SMILES: NC(=O)c1ncn([C@@H]2O[C@H](CO)[C@@H](O)[C@H]2O)n1 [ribavirin, reference compound]
- CC50 at 72 h [1]: > 100 µM
- EC50 [2]: < 10 µM
